We go through 4 compounds from patent US20130338203A1, “TREATMENT OF ARTERIAL AGEING BY COMBINATION OF RAAS INHIBITOR AND HMG-CoA REDUCTASE INHIBITOR” (FARMICOM PHARMACEUTICAL COMPANY D.O.O., priority 2011, published 2013).

Like-named read-outs stand apart in the source and are kept apart here.

The conditions of series [1]: in vivo; cited from earlier work.
For series [2], the system named is brachial artery. The settings on record: cited from earlier work; for FMD, improvement (increase): Ex 8 valsartan group, 30 days vs before.
The test system of series [3] is common carotid artery. Conditions: cited from earlier work.
In series [4] the test system is carotid artery. The settings on record: cited from earlier work.
The subject of series [5] is arterial wall. The settings on record: Ex 8 valsartan group, cited from earlier work.
Series [6] has as its system high sensitivity C-reactive protein (hsCRP). Conditions: Ex 9 valsartan group, 1 month treatment; calculated on data from co-pending patent application; cited from earlier work.
The test system of series [7] is thoracic aorta. The experiment in a line: Endothelium-dependent relaxation of thoracic aorta after 6 weeks oral treatment (Example 13). Format: in vivo, Wistar rats. Conditions: rats, 6 weeks treatment p.o., NS. Here is the method: Sixty Wistar rats of both sexes weighing 230-280 g, 20-24 weeks of age, were obtained from the Faculty of Medicine, Ljubljana. […] A regular 12 h circadian cycle was maintained and between 5 and 7 animals were kept in each cage. The temperature of the experimental environment was 23-25° C. […] After 4-8 weeks of therapy the animals were sacrificed, blood samples were collected and heart and thoracic aorta were isolated. Each group was composed of the same number of male and female rats. […] After mounting, rings were allowed to equilibrate at 20 mN resting tension (found to be optimal in previous experiments) for 60 min. During this period, the tension was periodically adjusted to the desired level and the K-H solution was changed every 10 minutes. After the equilibration period, the rings were contracted three times with 60 mmol/L KCl to achieve stable contractions. […] In control animals the endothelium-dependent relaxation of the thoracic aorta was constant. However, in rats treated with drugs the percentage of endothelium-dependent relaxation was increased in comparison to the control group.

Series [8] deals with heart. In words: Coronary flow rate after 6 weeks oral treatment (Example 13). The settings on record: rats, 6 weeks treatment p.o., 40-minute ischemia, reperfusion, P < 0.001. The class given is in vivo, Wistar rats. Here is the method: Sixty Wistar rats of both sexes weighing 230-280 g, 20-24 weeks of age, were obtained from the Faculty of Medicine, Ljubljana. […] A regular 12 h circadian cycle was maintained and between 5 and 7 animals were kept in each cage. The temperature of the experimental environment was 23-25° C. […] After 4-8 weeks of therapy the animals were sacrificed, blood samples were collected and heart and thoracic aorta were isolated. Each group was composed of the same number of male and female rats.

In series [9] the test system is isolated rat heart. The experiment in a line: Coronary flow rate of isolated heart, ischaemia-reperfusion (Example 12).
Series [10] has as its system isolated rat heart. The experiment in a line: LDH release rate, myocardial ischaemic-reperfusion injury of isolated heart (Example 12). Conditions: losartan 1 μM; P < 0.01.
Series [11] concerns isolated rat aortic rings. The experiment in a line: Endothelium-dependent relaxation of isolated aortic rings after incubation with drugs (Example 12).
The mark [12] stands for this setting: Ex 8, 1 month treatment period with Valsartan only.
Setting [13] is: Ex 8 valsartan group, 20 mg daily, 30 days vs before.
Setting [14] is: Ex 8 valsartan group, 20 mg daily, 30 days.
Where [15] appears, read: Ex 8 valsartan group, 7 months of rest period.

As for `CC(C)n1c(/C=C/C(O)CC(O)CC(=O)O)c(-c2ccc(F)cc2)c2ccccc21` (stereo not drawn) [fluvastatin], in series [1], the “half-life time (t1/2) in the blood plasma” value (shortened to “half-life time”) was “about 2.5 hours”.
As for `CCCCC(=O)N(Cc1ccc(-c2ccccc2-c2nnn[nH]2)cc1)[C@H](C(=O)O)C(C)C` [valsartan], the “FMD, residual improvement in % of effect achieved after 1 month of treatment” value in series [2] (Ex 8 valsartan group (20 mg daily, 30 days), 7 months of rest period) was 30.4%. In addition, in series [2] (20 mg daily), the “FMD, improvement (increase)” value is on record as “+156.0%”. In addition, in series [2] (20 mg daily, listed as Valsartan), the “FMD, improvement (increase)” value is on record as 156.0%. For the same compound, the “FMD, after treatment” value in series [2] (Ex 8 valsartan group: healthy men 43.0 y (n=20), 20 mg daily, 30 days, data from co-pending patent application) is recorded as 5.40%. Besides, in series [2] (Ex 8 valsartan group: healthy men 43.0 y (n=20), baseline, data from co-pending patent application), the “FMD, before treatment” value is on record as 2.11%. In addition, the “PWV decreased by” value in series [3] (setting [12]) was 7.2%. In addition, the “PWV, improvement” value in series [3] (setting [13]) is on record as −7.2%. Further, the “PWV, after treatment” value in series [3] (setting [14]) is 5.41 m/s. Besides, in series [3] (setting [15]), the “PWV, residual improvement in % of effect achieved after 1 month of treatment” value is reported as 9.9%. For the same compound, the “PWV, before treatment” value in series [3] (Ex 8 valsartan group, baseline) is 5.80 m/s. In addition, the “β-stiffness of the carotid artery decreased by” value in series [4] (setting [12]) is reported as 13.7%. Besides, the “β-stiffness, improvement” value in series [4] (setting [13]) is listed as −13.7%. In series [4] (setting [14]), the “β-stiffness, after treatment” value is 6.40 U. Also, the “β-stiffness, residual improvement in % of effect achieved after 1 month of treatment” value in series [4] (setting [15]) is recorded as 9.2%. Further, the “β-stiffness, before treatment” value in [4] (Ex 8 valsartan group, baseline) was 7.28 U. Besides, in [5] (20 mg daily, 30 days vs before), the “Arterial age according to age normogram, improvement” value is given as −7.0 years. Moreover, in [5] (20 mg daily, 30 days), the “Arterial age according to age normogram, after treatment” value is 38.0 years. Moreover, in [5] (7 months of rest period), the “Arterial age according to age-related normogram” value is recorded as 43.5 years and the “Arterial age, difference to before treatment (in brackets)” value is −1.5 years. The “Arterial age according to age normogram, before treatment” value in series [5] (baseline) is 45.0 years. In addition, the “Change in hs-CRP value after treatment” value in series [6] was “+2.45%”. The “half-life time” value in [1] is “about 6.0 hours”.
With `CCCCc1nc(Cl)c(CO)n1Cc1ccc(-c2ccccc2-c2nn[nH]n2)cc1` [losartan], in [7] (daily dose 2 mg/kg), the “Increase of endothelium dependent relaxation compared to controls” value was found to be 7.3%. The “Increase in coronary flow compared to controls” value was found to be 89.6% in series [8] (daily dose 2 mg/kg) and 67.3% in series [9] (losartan 1 μM, P < 0.001). Further, in series [1], the “half-life time” value is 1.5 to 2 h. Also, the “Decrease of the LDH release rates compared to controls” value in series [10] turned out to be 58.6%. Moreover, the “Endothelium dependent relaxation compared to controls” value in [11] (losartan 10 μM, P < 0.01) amounted to 17.0%.
On to `CC(C)c1c(C(=O)Nc2ccccc2)c(-c2ccccc2)c(-c2ccc(F)cc2)n1CC[C@@H](O)C[C@@H](O)CC(=O)O` [atorvastatin], for which the “Increase of endothelium dependent relaxation compared to controls” value in series [7] (daily dose 5 mg/kg) was found to be 6.9%. Besides, the “Increase in coronary flow compared to controls” value in series [8] (daily dose 5 mg/kg) is recorded as 86.9%; in series [9] (atorvastatin 0.1 μM, P < 0.05), 52.9%. Further, in series [11] (atorvastatin 1 μM, P < 0.001), the “Endothelium dependent relaxation compared to controls” value is 21.1%.
